# Experimental data taken from patent US12344587B2, “Synthetic retinoids for use in RAR activation” (UNIVERSITY OF DURHAM, priority 2019, dated 2025).
# What was measured:
# [1] = tested on: retinoic acid response element (RARE); test: X-Gal RA based reporter assay (genomic activity); assay type: cell-based; settings: for Genomic Activity (X-Gal RA Based Reporter Assay) Efficacy (Emax) / EC50: Sil-15 reporter cells, overnight incubation; for EC50: read-out: Genomic Activity (X-Gal RA Based Reporter Assay) Potency (EC50); for Genomic activity and potency compared to retinoic acid (ATRA): X-Gal assay, versus ATRA
# Experimental: The genomic activity of synthetic retinoids was evaluated by determining their efficiency of inducing transcription using the X-Gal Assay. The X-Gal Assay utilizes Sil-15 reporter cells in which the transcription of the LacZ gene is under control of a promoter linked to a retinoic acid response element (RARE). After treatment of the reporter cells with retinoids, the ability of the compounds to induce transcription can be attained by monitoring and quantifying the activity of β-galactosidase produced by the reporter cells.
# Sil-15 cells were plated at 100,000 cells per well in 96-well plates coated in 0.1% gelatin. The following day, serial dilutions of retinoid ligands, prepared in Dulbecco's Modified Eagle's Medium (DMEM) containing 10% foetal calf serum (FCS) were added at concentrations from 10^−6 M to 10^−14 M and the plates were incubated overnight. All concentrations for the ATRA standard curve and the other retinoid ligands were tested in triplicate.
# The next day, the assay plates were washed twice with phosphate buffered saline (PBS), fixed with 100 μl per well of 1% glutaraldehyde and 1 mM MgCl2 in PBS for 15 minutes and washed twice with PBS. β-galactosidase activity was detected by the addition of 100 μl of freshly-prepared 0.2% X-Gal in 1 mM MgCl2, 3.3 mM potassium ferricyanide and 3.3 mM potassium ferrocyanide in PBS per well. Plates were incubated for 6 hours at 37° C. in 5% CO2 and colour change was detected by reading the plates at 650 nm on an Emax Precision Microplate Reader (Molecular Devices).
# [2] = tested on: ERK1/2; test: ERK1/2 phosphorylation assay, AlphaLISA SureFire Ultra (non-genomic activity); assay type: cell-based; set-up: Non-genomic activity (ERK½ Phosphorylation Assay) Efficacy (Emax): unit not given here; settings: SH-SY5Y cells; for EC50: Homo sapiens, 0.5 h, read-out: Non-genomic activity (ERK½ Phosphorylation Assay) Potency (EC50); for EC50 / Non-genomic activity (ERK½ Phosphorylation Assay) Efficacy (Emax): serum-free, 30 minutes stimulation; for Erk 1/2 phosphorylation potency/efficacy compared to retinoic acid: versus retinoic acid
# Experimental: The non-genomic activity of synthetic retinoids was evaluated by measuring their ability to induce phosphorylation of ERK1/2 using the AlphaLISA® SureFire® Ultra ERK1/2 kit.
# In this assay, SH-SY5Y cells (100,000 cells/well) were plated in 96-well plates and serum-starved in DMEM for 24 hours. Retinoids were tested at concentrations from 10−5 M to 10−11 M and at a final concentration of 0.1% DMSO in the medium. The assay was carried out on the SH-SY5Y cells in serum-free DMEM, cells were stimulated by retinoid for 30 minutes at 37° C.
# At the end of the assay, the medium was removed, and cells were lysed in 50 μl of freshly prepared 1× lysis buffer (supplied in the kit). The 96-well plate was agitated on an orbital shaker (SO1, Stuart Scientific) at approximately 350 rpm for 10 minutes at room temperature.
# In the meantime, the activation buffer was diluted 25-fold in the reaction buffers. Under green light in a dark room, the acceptor beads were diluted 50-fold in the freshly prepared reaction mix while the donor beads were diluted 50-fold in dilution buffer to obtain two final reaction mixtures.
# 10 μl of cell lysate was then transferred per well into 384-well white Proxiplates plates (PerkinElmer) and 5 μl of each prepared acceptor and donor reaction mixture was added under green light in a dark room. Plates were wrapped with aluminium foil and incubated at room temperature for at least 3 hours. Readings were taken using an Envision system (PerkinElmer Life Sciences) using the AlphaScreen® settings.
# [3] = tested on: SH-SY5Y cells; test: Induction of neurite outgrowth; assay type: cell-based; settings: 10 nM, 5 days; for fold induction at 0.01 µM: Homo sapiens, 120 h, read-out: Neurite Outgrowth Fold increase
# Experimental: SY—SY5Y cells were plated at 10,000 cells/well in 12-well plates containing acid-treated/poly-L-lysine-coated coverslips. After 24 hours, each retinoid was added to the medium at a concentration of 10 nM and the plates were incubated for 5 days. After retinoid treatment, SH-SY5Y cells on coverslips were washed twice in PBS, fixed in 4% paraformaldehyde (PFA) for 20 minutes at room temperature, and washed twice with PBS.
# For immunocytochemical staining of neurites, cells on coverslips were washed three times in PBS, and incubated in blocking solution (10% donkey serum and 0.1% triton X-100 in PBS) for 1 hour at room temperature. Cells were then labelled by incubation overnight at 4° C. with β-III tubulin primary antibody (Sigma-Aldrich) diluted 1:1000 in blocking buffer. Following incubation overnight, cells were washed three times with PBS containing 0.1% Triton X-100 solution (PBST) before incubation with anti-mouse monoclonal secondary antibody (1:300 in PBST; Jackson Immunoresearch) for 2 hours at room temperature. Finally, after three washes in PBST and a final wash in PBS, the coverslips were mounted on slides and stored at 4° C.
# ImageJ software with the NeuronJ plugin was used to quantify neurite outgrowth on stained cells. For each experiment, 10 different randomly selected images were taken from each cover slip using a Nikon Eclipse E400 fluorescence microscope. Each image was converted into an 8-bit image (necessary for the NeuronJ plugin) and optimised with the brightness and contrast tool in GIMP (GNU Image Manipulation Program). For each image, individual traces were drawn for each clearly-identifiable neurite using the tracing tool in the NeuronJ plugin. Neurite length was measured in pixels and transformed into the corresponding length in μm depending on the magnification used. The average neurite length for each image was calculated by dividing total neurite length by the total number of neurites per image. Ten images per cover slip were measured and the mean calculated for the coverslip overall. Coverslips were in triplicate for each retinoid and concentration.
# [4] = Turbidimetric aqueous solubility; assay type: physicochemical; settings: aqueous buffer, kinetic from dmso stock, 0.01 M phosphate buffered saline pH 7.4, 1% DMSO, 37° C.
# Experimental: Test compound (10 mM in DMSO) is serially diluted to give solutions of 0.1, 0.3, 1 and 3 mM in DMSO. Each test compound concentration is then further diluted 1 in 100 in buffer (0.01 M phosphate buffered saline pH 7.4) so that the final DMSO concentration was 1% and the final test compound concentrations were 1, 3, 10, 30 and 100 μM. The experiment was performed at 37° C. and each concentration sample was incubated in 7 replicate wells. The plates were incubated for 2 hr at 37° C. before the absorbance was measured at 620 nm. The solubility of the sample was estimated from the concentration of test compound that produced an increase in absorbance above vehicle control (i.e., 1% DMSO in buffer).
EC50 [1],EC50 [2],solubility at 2 h [4],Structure (SMILES),Genomic Activity (X-Gal RA Based Reporter Assay) Efficacy (Emax) [1],Genomic activity and potency compared to retinoic acid (ATRA) [1],Non-genomic activity (ERK½ Phosphorylation Assay) Efficacy (Emax) [2],Erk 1/2 phosphorylation potency/efficacy compared to retinoic acid [2],Average neurite length compared to cells treated with ATRA [3],fold induction at 0.01 µM [3]
0.0581 nM,26.4 nM,20 µM,"CC1(C)CCC(C)(C)c2cc(C#Cc3ccc(C(=O)O)cc3F)ccc21 [DC526, 3-Fluoro-4-[2-(5,5,8,8-tetramethyl-5,6,7,8-tetrahydronaphthalen-2-yl)ethynyl]benzoic acid]",149.1,increased genomic activity and potency,50.22,higher potency and efficacy,significantly larger average neurite length,2.1
0.146 nM,14.2 nM,20 µM,"CC1(C)CCC(C)(C)c2cc(C#Cc3ccc(C(=O)O)nc3)ccc21 [DC528, 5-[2-(5,5,8,8-tetramethyl-5,6,7,8-tetrahydronaphthalen-2-yl)ethynyl]pyridine-2-carboxylic acid]",206.5,increased genomic activity and potency,69.15,higher potency and efficacy,significantly larger average neurite length,2.2
0.0697 nM,8.54 nM,> 100 µM,"CC1(C)CCC(C)(C)c2nc(C#Cc3ccc(C(=O)O)cc3)cnc21 [DC645, 4-[2-(5,5,8,8-Tetramethyl-5,6,7,8-tetrahydroquinoxalin-2-yl)ethynyl]benzoic acid]",185.9,increased genomic activity and potency,91.57,higher potency and efficacy,significantly larger average neurite length,2.3
